Experimental findings from publication PMC12750388, “Coumarin-1,2,3-Triazole Conjugates as Molecular Scaffolds for the Selective Induction of ROS-Driven Apoptosis in Cancer Cells in the Development of Pyruvate Kinase M2 Inhibitors” (ACS Omega, 2025) are described below.

One series has as its system HCT116. The experiment in a line: MTT cell viability assay, HCT116. Type of series: cell-based, human. (Tetrazolium assays rely on reduction of a dye to a coloured formazan, in cell work by metabolically active cells.)
The test system of the next series is SCC-9 cell line. The experiment in a line: MTT cell viability assay, SCC-9. Type of series: cell-based, human. How it is done: (§1) The viability of SCC cell lines and primary human fibroblast cells was evaluated using the MTT assay to determine half maximal inhibitory concentration (IC50). Briefly, cells were grown in triplicate in 96-well plates (5 × 10^3 cells/well) until confluence. Then the medium was removed, fresh medium was added, and the cells were returned to the incubator in the presence of different compounds. DMSO at the same concentrations was used as a 100% cell viability control. After 48 h, cells were incubated with 5 mg/mL MTT reagent (3-(4,5-dimethyl-2-thiazolyl)-2,5-diphenyl-2-H-tetrazolium bromide) (Sigma-Aldrich Co., St. Louis, MO, USA) for 3.5 h. After that, formazan crystals were dissolved in MTT solvent solution (DMSO/methanol 1:1 v/v), and the absorbance at 560 nm was evaluated using an EPOCH microplate spectrophotometer (BioTek Instruments, Winooski, VT, USA) with the background absorbance at 670 nm subtracted. Each of the 12 compounds (7a–7l) was tested at six different concentrations, ranging from 6.25 to 200 μM in cancer and normal cell lines. Control (carboplatin) was tested at six different concentrations ranging from 25 μM to 800 μM in cancer cells and from 50 μM to 1600 μM in normal cells.
(§2) Half-maximal inhibitory concentration (IC50) values were obtained from the MTT assay of at least three independent replicates through nonlinear regression analysis using GraphPad Prism 5.0 software (Intuitive Software for Science, San Diego, CA, USA). Data were presented as means ± standard deviation (SD). A log dose–response curve (inhibitor vs response) using the least-squares method was used to determine the IC50 and SD from the data. The selectivity index (SI) was calculated as the ratio between the IC50 in normal cells and the IC50 in cancer cells, obtained by dividing the IC50 of normal cells by the IC50 of cancer cells.

The subject of the next series is SCC-25. In words: MTT cell viability assay, SCC-25. Type of series: cell-based, human. How it is done:
as §1, §2

The next series can be described thus: Hemolysis assay. Format: cell-based. The conditions noted are these: isolated human erythrocytes, pH 7.5, read-out: level of hemolysis. Here is the method: (§3) A hemolysis assay to evaluate surfactant effects of tested substances was performed using human blood approved by the Research Ethics Committee of Universidade Federal Fluminense (CAAE: 43134721.4.0000.5626). Erythrocytes are isolated upon three repeated centrifugation cycles at 1500 rpm for 15 min. Between each cycle of centrifugation, supernatant was removed, and a pH 7.5 PBS (phosphate-buffered saline) solution supplemented with 10 mM glucose was added to remove lysed erythrocytes. The number of cells was determined in an Automatic Cell Counter (Thermo Fisher, Waltham, MA, USA). Erythrocytes were then plated in 96-well plates at a concentration of 4 × 10^8 cells/well in triplicates, and 10 μL of compounds were added at a final concentration of 300 μM in PBS with glucose (final volume 100 μL). Ten μL of PBS was used as a negative control, and 10 μL of PBS with 0.1% Triton X-100 was used as a positive control. Data reading was performed with EPOCH (BioTek Instruments, Winooski, VT, USA) at an absorbance of 540 nm.

In a further series the test system is erythrocytes. The experiment in a line: Hemolysis assay. Type of series: cell-based. Particulars: human erythrocytes, 300 μM. How it is done:
as §3

Series [1] deals with SCC-9 cells. The experiment in a line: Videomicroscopy by time-lapse. Type of series: cell-based, human. The conditions noted are these: SCC-9, 2 × IC50 (24.58 μM), up to 48 h. Here is the method: Cells were maintained in a controlled chamber containing 5% CO2 and 37 °C. Images were captured every minute and integrated using Framelapse software (Neximo Laboratories, Uttar Pradesh, India).

The subject of the next series is B16–F10. In words: MTT cell viability assay, B16–F10. Type of series: cell-based, murine.
The next series deals with C57BL/6 mice. In words: Acute toxicity assay in vivo. Particulars: 14 days. Here is the method: All experiments were performed in accordance with the Brazilian guidelines and regulations. Dosing and analysis were performed according to 423 OECD guidelines and reviewed by ref. . An experimental approach was conducted using experimental groups (n = 3) in which each group received a single dose of 7f (100, 200, or 400 mg/kg). […] Control group animals received only 3% DMSO in PBS vehicle. Animals were examined every day, twice a day, for mortality and morbidity for 14 days, and all animals were sacrificed by cervical dislocation. The animals’ body weight and average food consumption were measured every 7 days. […]
increased rear arching, and mobility impairment. The necropsy included an examination of the external characteristics of the carcass; external body orifices; the abdominal, thoracic, and cranial cavities; organs/tissues of liver, thymus, right kidney, right testicle, heart, and lung.
Animals upon euthanasia had their organs evaluated for signs of toxicity or morphological […]
are presented: changes in body weight and food intake, signs of morbidity, possible mortality, and macroscopic alterations in collected organs. Each experimental group consisted of three C57BL/6 mice. The animals were monitored for 14 days, after which they were euthanized and necropsied. […]

Series [2] has as its system SCC-9 cells. In words: MTT cell viability with N-acetyl-L-cysteine pretreatment. Format: cell-based, human. Particulars: SCC-9, 48 h; 7f 1 × IC50, menadione 20 μM. How it is done: The production of reactive oxygen species (ROS) was assessed by the detection of hydrogen peroxide (H2O2) using the ROS-Glo H2O2 assay kit (Promega Corporation, Madison, WI, USA; G8820). […] A plate with wells without cells was used as a control. Cells and cell-free wells remained in treatment at times of interest, and 2 h before completion of the times, well volumes were removed to reduce to 40 μL per well. Then the positive control of menadione (Sigma-Aldrich Co., St. Louis, MO, USA), a polycyclic aromatic ketone based on 1,4-naphthoquinone, was used to treat its respective well, and H2O2 substrate from the kit was added for all treatments, followed by the incubation of the plate for the remaining 2 h. Then the detection solution was added, and the plates remained at room temperature for 20 min, following the reading in the TD 20/20 luminometer (Turner Designs, Sunnyvale, CA, USA). The reading of bioluminescence detected is indicated as arbitrary units (a.u.). Additionally, the cell viability was assessed through pretreatment of cells with 10 mM N-acetyl-L-cysteine (NAC) (Sigma-Aldrich Co., St. Louis, MO, USA) for 2 h. […] At the end of the time, the MTT cell viability assay was performed.

The mark [3] stands for this setting: versus human gingival fibroblast.
Where [4] appears, read: 100 mg/kg single intraperitoneal dose.
Where [5] appears, read: 200 mg/kg single intraperitoneal dose.
Setting [6] is: 400 mg/kg single intraperitoneal dose.

A word on the IC50: it is the concentration at which inhibition is half-maximal. As to `O=C1C=C(OCc2cn(CCCOc3cc(=O)oc4ccccc34)nn2)C(=O)c2ccccc21` [Compound 7f, 2-((1-(3-((2-Oxo-2H-chromen-4-yl)oxy)propyl)-1H-1,2,3-triazol-4-yl)methoxy)naphthalene-1,4-dione], the IC50 came out at 6.72 µM with HCT116 (HCT-116, MTT, human colon carcinoma); 12.3 µM in the series on SCC-9 cell line (Homo sapiens, SCC-9, MTT, 48 h); 11.1 µM in the series on SCC-25 (Homo sapiens, SCC-25, MTT, 48 h); 4.93 µM with B16–F10 (Mus musculus, B16-F10, MTT, murine melanoma). In the series on HCT116 (setting [3]), the “SI HCT116” value is given as 3.38. In addition, the “SI SCC-9” value with SCC-9 cell line (IC50 human gingival fibroblast / IC50 SCC-9) came out at 1.85. Also, the “SI SCC-25” value in the series on SCC-25 (IC50 human gingival fibroblast / IC50 SCC-25) was 2.05. Also, in “Hemolysis assay”, the hemolysis at 300 µM was roughly 5%. Also, the “hemolytic activity / membrane integrity” value in the series on erythrocytes is reported as “lack of significant hemolytic activity”. The “proliferation and morphology by video microscopy” value with SCC-9 cells [1] is reported as “pronounced inhibition of proliferation”. The “SI B16–F10” value in the series with B16–F10 (setting [3]) was 4.61. The “Change in body weight” value in the series on C57BL/6 mice (setting [4]), with C57BL/6 mice (setting [5]) and with C57BL/6 mice (setting [6]) was “Absent” each time. In addition, the “Change in food consumption” value in the series with C57BL/6 mice (setting [4]), in the series on C57BL/6 mice (setting [5]) and in the series with C57BL/6 mice (setting [6]) was “Absent” in each case. Further, the “Gross Necropsy” value in the series on C57BL/6 mice (setting [4]), with C57BL/6 mice (setting [5]) and in the series with C57BL/6 mice (setting [6]) was “Absent” in each case. For the same compound, the Morbidity result with C57BL/6 mice (setting [4]), in the series on C57BL/6 mice (setting [5]) and in the series on C57BL/6 mice (setting [6]) was “Absent” each time. In addition, the “cell viability in the presence of 10 mM N-acetyl-L-cysteine (NAC)” value with SCC-9 cells [2] is “NAC protected cell death”.
